Changes are numbered by the printed parent chain. Names may count otherwise. Like-named read-outs stand apart in the source and are kept apart here. Where no end group is shown, it is not given here. [ ]: non-standard residue; d: D form.
Legend:
cells [1] = conditions: variant with side-chain chiral amino acids swopped; cited from earlier work
cells [2] = conditions: cited from earlier work
[3] = cited from earlier work
[4] = cited from earlier work; remark: listed apart in the source
[5] = rats, radioactively labelled [151]; cited from earlier work
[6] = cited from earlier work; remark: listed apart in the source
[7] = cited from earlier work; remark: listed apart in the source
[8] = 5.5 (±1.7) ug/kg/min i.v. with inhaled nitric oxide (5 p.p.m.), across all subjects [183]; cited from earlier work
ROS (superoxide) = experiment: MitoSOX ROS (superoxide) signal in cultured cortical neurons of H+/T+ mice; format: cell-based, mouse; conditions: H+/T+ vs wild-type mitochondria, corrected for MitoSOX accumulation
From the text: (FIG. 6B) Experiments with cortical neurons in culture, after being cultured for 9-10 days, after being extracted from mouse embryos. […] As in FIG. 6A. But this time in cultured cortical neurons from the mice (embryos), wherein the mitochondria of H+/T+ mice have a more hyperpolarized ΨIM (accumulate more TMRM^+) than wild-type. But, as in FIG. 6A, have a more depolarized ΨIM upon FCCP/respiratory chain inhibitor (antimycin A/rotenone) administration. A typical value for ΨIM in normal mitochondria is −140 mV and if we equate the 5 a.u. value for wild-type in the 2nd panel with −140 mV, then the 6 a.u. value of H+/T+here in the 2nd panel is −168 mV. This ΨIM disparity means that H+/T+ mitochondria accumulates more MitoSOX ROS (superoxide) reporting compound in their mitochondrial matrix, wherein this disparity can be calculated using the equation presented earlier, and this disparity is shown here, in the 3rd panel. With this MitoSOX accumulation disparity, one would expect a greater MitoSOX signal from H+/T+ mitochondria, to wild-type mitochondria, in the proportion shown in the 3rd panel. But what is actually experimentally observed is in the 4th panel. Thence H+/T+ mitochondria must produce 66% less ROS (superoxide) than wild-type, which fits with their lower oxidative respiration rate observed in (FIG. 6A). […]

F1F0 ATP hydrolysis [9] = biological target: T1, F1F0 ATP hydrolysis (Mus musculus, UniProt P56480+Q03265); conditions: brain mitochondria of H+/T+ vs wild-type mice [130]; cited from earlier work
T1 construct: F1F0 ATP hydrolysis is 35% less in brain mitochondria isolated from H+/T+ than wild-type mice; from tissue; host or cells: mitochondria isolated from brain of wild-type and H+/T+ double transgenic mice

[10] = tested on: oxidative phosphorylation; conditions: State 3 respiration, H+/T+ vs wild-type [130]; cited from earlier work
F1F0 ATP hydrolysis [11] = biological target: T1, F1F0 ATP hydrolysis; conditions: cited from earlier work
[12] = tested on: oxidative phosphorylation; conditions: cited from earlier work
[13] = mouse, in vivo; cited from earlier work
F1F0 ATP hydrolysis [14] = biological target: T1, F1F0 ATP hydrolysis; conditions: colon mitochondria, I/T Tet-on mice [136]; cited from earlier work
[15] = tested on: oxidative phosphorylation; conditions: colon mitochondria, I/T Tet-on mice [136]; cited from earlier work
[16] = biological target: bovine F1F0 ATP hydrolysis (Bos taurus, UniProt P00829+P19483); conditions: cited from earlier work
[17] = COPD patients, 100 mg oral daily for 1 year, at year end
[18] = COPD patients, 100 mg oral daily for 1 year [168]
[19] = 7.47 ug/kg/min for 2 hours (60 mg), at the end of the infusion period

## Kkwkmrrnqfwvkvqr (K[dK][dW][dK][dM][dR][dR][dN][dQ][dF][dW][dV][dK][dV][dQ][dR]; not fully specified (residue 1); printed as Kkwkmrrnqfwvkvqr; also: retroinverse) [Retroinverse penetratin]
Cells [1]
  cellular penetration compared with penetratin: greater cellular penetration than penetratin
Cells [2]
  cellular toxicity: some cellular toxicity

## C=CCNc1nc(NCC=C)nc(N2CCN(C(c3ccc(F)cc3)c3ccc(F)cc3)CC2)n1 [almitrine]
[3]; 8 μg/kg/min for 20 minutes, during infusion
  mean plasma concentration of almitrine: 325 ng/mL
[3]; 16 μg/kg/min for 1 hour [177]
  highest observed plasma almitrine concentration: ~1,600 ng/ml
[3]; 16 μg/kg/min for 1 hour, 2 hours after the infusion stopped [177]
  plasma almitrine concentration, all subjects but one: below 400 ng/ml
[3]; 16 μg/kg/min for 1 hour, by 12 hours [177]
  plasma almitrine concentration, all subjects: below 200 ng/ml
[3]; 16 μg/kg/min for 1 hour, during infusion [177]
  plasma almitrine concentration, all subjects: greater than 600 ng/ml
[3]; 16 μg/kg/min, 20 minutes into the infusion
  mean plasma concentration of almitrine: 659 ng/mL
[4]; 8.3 μg/kg/min for 30 minutes [176]
  adverse side-effect: no adverse side-effect was observed
[4]; 16 μg/kg/min infusion
  plasma lactate concentrations: remained within the normal range in all patients
[4]; 16.7 ug/kg/min for 1 hour
  deleterious effects: without deleterious effects
[5]
  tissue accumulation: especially accumulated in the lungs

## C=CCNc1nc(NCC=C)nc(N2CCN(C(c3ccc(F)cc3)c3ccc(F)cc3)CC2)n1 [almitrine dimesylate]
[6]; COPD patients, 50 mg twice daily for 8 weeks, 2 weeks after the study
  plasma [almitrine]: 104 ng/mL
[6]; COPD patients, 50 mg twice daily, day 14
  plasma [almitrine] before the morning dose: 93 ng/mL
[6]; COPD patients, 50 mg twice daily, day 28
  plasma [almitrine] before the morning dose: 134 ng/mL
[6]; COPD patients, 50 mg twice daily, day 42
  plasma [almitrine] before the morning dose: 148 ng/mL
[6]; COPD patients, 50 mg twice daily, day 56
  plasma [almitrine] before the morning dose: 171 ng/mL
[6]; COPD patients, 75 mg oral daily for 6 months, at study end
  average trough plasma [almitrine]: 302 ng/mL
[6]; COPD patients, 100 mg oral daily 2 months then 1 month none, cycle for 1 year, at end
  mean plasma [almitrine]: 285 ng/mL
[6]; [17]
  mean plasma [almitrine]: 409.35 ng/mL
  trough plasma [almitrine]: 301.8 ng/mL
[6]; COPD patients, 100 mg twice daily for 8 weeks, 2 weeks after the study
  plasma [almitrine]: 311 ng/mL
[6]; COPD patients, 100 mg twice daily, day 14
  plasma [almitrine] before the morning dose: 268 ng/mL
[6]; COPD patients, 100 mg twice daily, day 28
  plasma [almitrine] before the morning dose: 409 ng/mL
[6]; COPD patients, 100 mg twice daily, day 42
  plasma [almitrine] before the morning dose: 442 ng/mL
[6]; COPD patients, 100 mg twice daily, day 56
  plasma [almitrine] before the morning dose: 572 ng/mL
[6]; COPD patients, 100-200 mg daily, those presenting peripheral neuropathy, at 3 months
  plasma [almitrine]: 344 ng/mL
[6]; COPD patients, 100-200 mg daily, those presenting peripheral neuropathy, at 12 months
  plasma [almitrine]: 617 ng/mL
[6]; COPD patients, 100-200 mg daily, those without peripheral neuropathy, at 3 months
  plasma [almitrine]: 249 ng/mL
[6]; COPD patients, 100-200 mg daily, those without peripheral neuropathy, at 12 months
  plasma [almitrine]: 387 ng/mL
[6]; COPD patients, long term [167]
  plasma [almitrine], two 50 mg doses per day vs a single 100 mg oral dose: 2 to 3 times higher
[6]; human, oral [151]
  time of peak plasma concentration of almitrine after consuming: 3.5 ± 0.7 h
[6]; on average across subjects
  oral dose bioavailable: 85%
[7]; COPD patients, 75 mg oral daily for 6 months
  adverse effects: no adverse effects
[7]; [18]
  increase in occurrence of a nervous system disorder vs placebo control: 4%
  increase in occurrence of paraesthesia vs placebo control: 5%
  increase in occurrence of polyneuropathy vs placebo control: 3.6%
[7]; COPD patients, 100-200 mg daily for a year [151]
  incidence of peripheral neuropathy, almitrine vs control group: 5 times higher
[7]; COPD patients, 100-200 mg daily for a year, in a minority [151]
  time at which peripheral neuropathy started to manifest, on average: 7 months
[7]; healthy subjects, 400 mg oral per day, short term [163]
  safety: safe
[3]; [19]
  lowest observed almitrine plasma level: 242 ng/mL
  mean almitrine plasma level: 327 ng/mL
[3]; 7.47 ug/kg/min for 2 hours, 15 minutes afterwards
  mean almitrine plasma level: 157 ng/mL
[3]; 7.47 ug/kg/min for 2 hours, 30 minutes afterwards
  mean almitrine plasma level: 154 ng/mL
[3]; 7.47 ug/kg/min for 2 hours, 60 minutes afterwards
  mean almitrine plasma level: 105 ng/mL
[3]; 7.47 ug/kg/min for 2 hours, 120 minutes afterwards
  mean almitrine plasma level: 67 ng/mL
[3]; 7.47 ug/kg/min for 2 hours, 600 minutes afterwards
  mean almitrine plasma level: 55 ng/mL
[8]
  increase of arterial pO2: > 30%

B1: human H49K IF1 protein: mutant human IF1 protein with a H49K substitution, expressed as transgene in mice (protein, UniProt Q9UII2 26-106, looked up, variant H49K)
ATPase inhibitor, …: GSDQSENVDRGAGSIREAGGAFGKREQAEEERYFRAQSREQLAALKKHKEEEIVHHKKEIERLQKEIERHKQKIKMLKHDD
modifications: expressed as transgene in mice
ROS (superoxide)
  less ROS (superoxide) produced: 66%
F1F0 ATP hydrolysis [9]
  reduction of F1F0 ATP hydrolysis capability: 35%
[10]
  less O2 consumption: ~60%
F1F0 ATP hydrolysis [11]; Tet-off mice [135]
  inhibition of F1F0 ATP hydrolysis capability: 25%
F1F0 ATP hydrolysis [11]; Tet-on mice [135]
  inhibition of F1F0 ATP hydrolysis capability: 40%
[12]; Tet-off mice [135]
  decrease of State 3 respiration rate: 37%
[12]; Tet-on mice [135]
  decrease of State 3 respiration rate: 44%
[13]
  weight, life span and cage behavior: no differences in weight, life span and cage behavior when compared to controls after one year of follow up

B2: human IF1 protein: Non-mutant human IF1 protein expressed as transgene in mouse intestine cells (protein, UniProt Q9UII2 26-106, looked up)
ATPase inhibitor, …: B1 ATPase inhibitor, … with K49H
F1F0 ATP hydrolysis [14]
  inhibition of F1F0 ATP hydrolysis capability: 35%
[15]
  decrease of oligomycin sensitive respiration rate: 60%

B3: yeast IF1 protein: IF1 protein sequence from yeast (protein, UniProt P01097 23-85, looked up)
F(1)-ATPase inhibitor IF(1), …: SEGSTGTPRGSGSEDSFVKRERATEDFFVRQREKEQLRHLKEQLEKQRKKIDSLENKIDSMTK
[16]
  inhibition of bovine F1F0 ATP hydrolysis: can inhibit
